Data as given in PMC6261661 (ACS chemical neuroscience, 2018).
Square brackets hold non-standard residues; d marks the D form. Peptide text beside a SMILES is read from it. * marks the point of attachment. dBip = N[C@H](Cc1ccc(-c2ccccc2)cc1)C(=O)O; 1Nal = N[C@@H](Cc1cccc2ccccc12)C(=O)O; 2Nal = N[C@@H](Cc1ccc2ccccc2c1)C(=O)O; d1Nal = N[C@H](Cc1cccc2ccccc12)C(=O)O; d2Nal = N[C@H](Cc1ccc2ccccc2c1)C(=O)O; Bta = N[C@@H](Cc1csc2ccccc12)C(=O)O; 3Pal = N[C@@H](Cc1cccnc1)C(=O)O; Tic = O=C(O)[C@@H]1Cc2ccccc2CN1; 2Thi = N[C@@H](Cc1cccs1)C(=O)O; Octanoyl = CCCCCCCC(=O)*

Assays:
Assay type in all cases: cell-based
mMC5R = mMC5R (Mus musculus, UniProt P41149); experiment: CRE/β-galactosidase reporter gene bioassay, agonist activity at mMC5R; details: for mMC5R pharmacology in words: comparisons are to reference peptide 1; for mMC5R Fold Diff.: fold difference in EC50 vs peptide 1, negative prefix = more potent than 1; for mMC5R fold less potent than peptide 1: less potent than 1
mMC1R = mMC1R (Mus musculus, UniProt Q01727); experiment: CRE/β-galactosidase reporter gene bioassay, agonist activity at mMC1R; details: for mMC1R Fold Diff: fold difference in EC50 vs peptide 1, negative prefix = more potent than 1; for EC50: mMC1R EC50, agonist, HEK-293 cells stably expressing receptor, ±SEM; for mMC1R fold decrease in potency compared to compound 1: less potent than 1
mMC4R = mMC4R (Mus musculus, UniProt P56450); experiment: CRE/β-galactosidase reporter gene bioassay, agonist activity at mMC4R; details: for mMC4R Fold Diff.: fold difference in EC50 vs peptide 1, negative prefix = more potent than 1; for mMC4R fold less potent than compound 1: less potent than 1
mMC3R = mMC3R (Mus musculus, UniProt P33033); experiment: cell-based; details: for mMC3R Fold Diff: fold difference in EC50 vs peptide 1, negative prefix = more potent than 1; for mMC3R relative percentage of stimulation at 100 μM: 100000.0
mMC3R, sequence (P33033 whole entry): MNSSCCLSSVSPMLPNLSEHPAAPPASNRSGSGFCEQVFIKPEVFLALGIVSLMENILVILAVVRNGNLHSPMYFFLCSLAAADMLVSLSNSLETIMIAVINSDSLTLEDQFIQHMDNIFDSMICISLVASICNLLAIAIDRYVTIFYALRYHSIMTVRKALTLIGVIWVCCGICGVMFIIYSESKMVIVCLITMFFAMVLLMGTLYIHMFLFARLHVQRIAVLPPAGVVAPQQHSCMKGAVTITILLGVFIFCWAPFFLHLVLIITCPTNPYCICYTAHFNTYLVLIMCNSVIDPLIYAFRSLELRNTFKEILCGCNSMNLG

mMC4R, sequence (P56450 whole entry): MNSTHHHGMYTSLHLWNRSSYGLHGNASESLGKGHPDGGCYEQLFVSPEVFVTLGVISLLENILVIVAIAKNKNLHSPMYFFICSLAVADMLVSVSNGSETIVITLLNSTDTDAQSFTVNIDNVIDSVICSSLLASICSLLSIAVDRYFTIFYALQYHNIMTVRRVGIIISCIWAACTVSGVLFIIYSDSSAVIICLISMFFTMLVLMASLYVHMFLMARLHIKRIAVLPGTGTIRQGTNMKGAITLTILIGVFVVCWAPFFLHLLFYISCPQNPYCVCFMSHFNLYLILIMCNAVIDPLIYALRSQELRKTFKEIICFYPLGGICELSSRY
mMC5R, sequence (P41149 whole entry): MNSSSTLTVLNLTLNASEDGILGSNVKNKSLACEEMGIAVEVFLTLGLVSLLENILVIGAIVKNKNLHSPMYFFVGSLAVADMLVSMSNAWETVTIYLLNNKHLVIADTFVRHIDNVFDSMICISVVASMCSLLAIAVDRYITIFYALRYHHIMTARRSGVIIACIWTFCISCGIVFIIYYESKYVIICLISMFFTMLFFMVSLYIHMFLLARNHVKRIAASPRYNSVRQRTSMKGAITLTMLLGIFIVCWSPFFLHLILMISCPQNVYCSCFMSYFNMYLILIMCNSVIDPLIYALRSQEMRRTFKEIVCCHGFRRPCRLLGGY
mMC1R, sequence (Q01727 whole entry): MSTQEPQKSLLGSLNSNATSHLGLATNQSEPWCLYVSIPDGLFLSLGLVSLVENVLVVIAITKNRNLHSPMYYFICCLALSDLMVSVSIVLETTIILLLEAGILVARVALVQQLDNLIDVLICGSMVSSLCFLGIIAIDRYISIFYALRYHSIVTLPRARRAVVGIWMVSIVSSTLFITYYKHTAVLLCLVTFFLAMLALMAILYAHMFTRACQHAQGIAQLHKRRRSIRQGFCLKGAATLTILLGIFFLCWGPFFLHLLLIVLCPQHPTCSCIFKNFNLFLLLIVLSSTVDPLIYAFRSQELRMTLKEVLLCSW

SMILES: CC(=O)N[C@@H](Cc1cnc[nH]1)C(=O)N[C@H](Cc1ccccc1)C(=O)N[C@@H](CCCN=C(N)N)C(=O)N[C@@H](Cc1c[nH]c2ccccc12)C(N)=O [Peptide 1, Ac-His-DPhe-Arg-Trp-NH2, reference compound]
- EC50 (mMC5R): 5.3 ± 1.6 nM

SMILES: CCCCCCCC(=O)N[C@@H](Cc1c[nH]cn1)C(=O)N[C@H](Cc1ccccc1)C(=O)N[C@@H](CCCNC(=N)N)C(=O)N[C@@H](Cc1csc2ccccc12)C(N)=O [Peptide 3, Octanoyl-His-DPhe-Arg-3Bal-NH2] (Octanoyl-H[dF]R[Bta]-NH2)
- mMC1R Fold Diff (mMC1R): −10
- EC50 (mMC1R): 14.6 ± 3.9 nM
- mMC1R fold difference in EC50, more potent than reference peptide 1 (mMC1R; more potent agonist than 1): 10 fold
- EC50 (mMC5R): 2.4 ± 0.5 nM
- mMC5R pharmacology in words (mMC5R): equipotent
- EC50 (mMC4R): 13 ± 3 nM
- EC50 (mMC3R): 52 ± 7 nM
- mMC3R Fold Diff (mMC3R): −11
- mMC3R fold difference, more potent agonist than Ac-His-DPhe-Arg-Trp-NH2 (mMC3R; more potent than 1): 11 fold

SMILES: CCCCCCCC(=O)N[C@@H](Cc1c[nH]cn1)C(=O)N[C@H](Cc1ccccc1)C(=O)N[C@@H](CCCNC(=N)N)C(=O)N1Cc2ccccc2C[C@H]1C(N)=O [Peptide 4, Octanoyl-His-DPhe-Arg-Tic-NH2] (Octanoyl-H[dF]R[Tic]-NH2)
- mMC1R Fold Diff (mMC1R): −20
- EC50 (mMC1R): 7.4 ± 2.1 nM
- EC50 (mMC5R): 270 ± 20 nM
- mMC5R pharmacology in words (mMC5R): decreased potencies
- mMC5R Fold Diff. (mMC5R): 50
- mMC5R fold less potent than peptide 1 (mMC5R): 50 fold
- EC50 (mMC4R): 1700 ± 300 nM
- mMC4R Fold Diff. (mMC4R): 120
- EC50 (mMC3R): 6900 ± 400 nM
- mMC3R Fold Diff (mMC3R): 12

SMILES: CCCCCCCC(=O)N[C@@H](Cc1c[nH]cn1)C(=O)N[C@H](Cc1ccccc1)C(=O)N[C@@H](CCCNC(=N)N)C(=O)N[C@@H](Cc1ccccc1)C(N)=O [Peptide 5, Octanoyl-His-DPhe-Arg-Phe-NH2] (Octanoyl-H[dF]RF-NH2)
- mMC1R Fold Diff (mMC1R): −7
- EC50 (mMC1R): 19.4 ± 2.1 nM
- EC50 (mMC5R): 26 ± 3 nM
- mMC5R pharmacology in words (mMC5R): decreased potencies
- mMC5R Fold Diff. (mMC5R): 5
- EC50 (mMC4R): 110 ± 10 nM
- mMC4R Fold Diff. (mMC4R): 8
- EC50 (mMC3R): 290 ± 60 nM

SMILES: CCCCCCCC(=O)N[C@H](Cc1c[nH]cn1)C(=O)N[C@H](Cc1ccccc1)C(=O)N[C@@H](CCCNC(=N)N)C(=O)N[C@@H](Cc1c[nH]c2ccccc12)C(N)=O [Peptide 9, Octanoyl-DHis-DPhe-Arg-Trp-NH2]
- EC50 (mMC1R): 230 ± 30 nM
- EC50 (mMC5R): 290 ± 40 nM
- mMC5R pharmacology in words (mMC5R): decreased potencies
- mMC5R Fold Diff. (mMC5R): 55
- mMC5R fold less potent than peptide 1 (mMC5R): 55 fold
- EC50 (mMC4R): 340 ± 30 nM
- mMC4R Fold Diff. (mMC4R): 25
- EC50 (mMC3R): 4200 ± 800 nM
- mMC3R Fold Diff (mMC3R): 7

SMILES: CCCCCCCC(=O)N[C@@H](Cc1c[nH]c2ccccc12)C(=O)N[C@H](Cc1ccccc1)C(=O)N[C@@H](CCCNC(=N)N)C(=O)N[C@@H](Cc1c[nH]c2ccccc12)C(N)=O [Peptide 10, Octanoyl-Trp-DPhe-Arg-Trp-NH2] (Octanoyl-W[dF]RW-NH2)
- mMC1R pharmacology in words (mMC1R; comparisons are to reference peptide 1): equipotent
- EC50 (mMC1R): 210 ± 30 nM
- EC50 (mMC5R): 58 ± 7 nM
- mMC5R pharmacology in words (mMC5R): decreased potencies
- mMC5R Fold Diff. (mMC5R): 11
- EC50 (mMC4R): 180 ± 40 nM
- mMC4R Fold Diff. (mMC4R): 13
- mMC3R relative percentage of stimulation at 100 μM (mMC3R): 50%−65%

SMILES: CC(=O)N[C@@H](Cc1c[nH]c2ccccc12)C(=O)N[C@H](Cc1cccc2ccccc12)C(=O)N[C@@H](CCCNC(=N)N)C(=O)N[C@@H](Cc1c[nH]c2ccccc12)C(N)=O [Peptide 19, Ac-Trp-DNal(1’)-Arg-Trp-NH2] (Ac-W[d1Nal]RW-NH2)
- mMC1R Fold Diff (mMC1R): 70
- EC50 (mMC1R): 9700 ± 4700 nM
- EC50 (mMC5R): 3900 ± 2200 nM
- mMC5R Fold Diff. (mMC5R): 725
- EC50 (mMC4R): 12000 ± 4000 nM
- mMC4R Fold Diff. (mMC4R): 870
- EC50 (mMC3R): > 100000 nM

SMILES: CC(=O)N[C@@H](Cc1ccccc1)C(=O)N[C@H](Cc1ccc(-c2ccccc2)cc1)C(=O)N[C@@H](CCCNC(=N)N)C(=O)N[C@@H](Cc1c[nH]c2ccccc12)C(N)=O [Peptide 20, Ac-Phe-DBip-Arg-Trp-NH2] (Ac-F[dBip]RW-NH2)
- mMC1R Fold Diff (mMC1R): 71
- EC50 (mMC1R): 10000 ± 4900 nM
- EC50 (mMC5R): 500 ± 70 nM
- mMC5R Fold Diff. (mMC5R): 94
- EC50 (mMC4R): 5400 ± 1600 nM
- mMC4R Fold Diff. (mMC4R): 395
- EC50 (mMC3R): > 100000 nM

SMILES: CC(=O)N[C@@H](Cc1ccccc1)C(=O)N[C@H](Cc1cccc2ccccc12)C(=O)N[C@@H](CCCNC(=N)N)C(=O)N[C@@H](Cc1c[nH]c2ccccc12)C(N)=O [Peptide 21, Ac-Phe-DNal(1’)-Arg-Trp-NH2] (Ac-F[d1Nal]RW-NH2)
- mMC1R Fold Diff (mMC1R): 28
- EC50 (mMC1R): 3900 ± 1900 nM
- EC50 (mMC5R): 3800 ± 2100 nM
- mMC5R Fold Diff. (mMC5R): 720
- EC50 (mMC4R): 2800 ± 1000 nM
- mMC4R Fold Diff. (mMC4R): 205
- EC50 (mMC3R): > 100000 nM

SMILES: CC(=O)N[C@@H](Cc1cccnc1)C(=O)N[C@H](Cc1ccccc1)C(=O)N[C@@H](CCCNC(=N)N)C(=O)N[C@@H](Cc1ccc2ccccc2c1)C(N)=O [Peptide 23, Ac-3PAL-DPhe-Arg-Nal(2’)-NH2] (Ac-[3Pal][dF]R[2Nal]-NH2)
- mMC1R Fold Diff (mMC1R): 14
- mMC1R fold decrease in potency compared to compound 1 (mMC1R): 14 fold
- EC50 (mMC1R): 1900 ± 600 nM
- EC50 (mMC5R): 240 ± 50 nM
- mMC5R Fold Diff. (mMC5R): 45
- EC50 (mMC4R): 110 ± 20 nM
- mMC4R Fold Diff. (mMC4R): 8
- mMC4R fold less potent than compound 1 (mMC4R): 8 fold
- EC50 (mMC3R): > 100000 nM

SMILES: CC(=O)N[C@@H](Cc1c[nH]c2ccccc12)C(=O)N[C@H](Cc1ccccc1)C(=O)N[C@@H](CCCNC(=N)N)C(=O)N[C@@H](Cc1cccc2ccccc12)C(N)=O [Peptide 24, Ac-Trp-DPhe-Arg-Nal(1’)-NH2] (Ac-W[dF]R[1Nal]-NH2)
- mMC1R Fold Diff (mMC1R): 23
- EC50 (mMC1R): 3300 ± 1200 nM
- EC50 (mMC5R): 3000 ± 1200 nM
- mMC5R Fold Diff. (mMC5R): 566
- EC50 (mMC4R): 1100 ± 300 nM
- mMC4R Fold Diff. (mMC4R): 77
- mMC3R relative percentage of stimulation at 100 μM (mMC3R): 50%

SMILES: CC(=O)N[C@@H](Cc1c[nH]c2ccccc12)C(=O)N[C@H](Cc1ccccc1)C(=O)N[C@@H](CCCNC(=N)N)C(=O)N[C@@H](Cc1csc2ccccc12)C(N)=O [Peptide 25, Ac-Trp-DPhe-Arg-3Bal-NH2] (Ac-W[dF]R[Bta]-NH2)
- mMC1R Fold Diff (mMC1R): 57
- EC50 (mMC1R): 8000 ± 3000 nM
- EC50 (mMC5R): 4800 ± 1700 nM
- mMC5R Fold Diff. (mMC5R): 905
- mMC5R fold less potent than peptide 1 (mMC5R): approximately 1000 fold
- EC50 (mMC4R): 7900 ± 2400 nM
- mMC4R Fold Diff. (mMC4R): 576
- mMC4R fold less potent than compound 1 (mMC4R): 580 fold
- EC50 (mMC3R): > 100000 nM

SMILES: CC(=O)N[C@@H](Cc1c[nH]c2ccccc12)C(=O)N[C@H](Cc1ccccc1)C(=O)N[C@@H](CCCNC(=N)N)C(=O)N[C@H](Cc1ccc2ccccc2c1)C(N)=O [Peptide 26, Ac-Trp-DPhe-Arg-DNal(2’)-NH2] (Ac-W[dF]R[d2Nal]-NH2)
- mMC1R Fold Diff (mMC1R): 167
- mMC1R fold decrease in potency compared to compound 1 (mMC1R): > 160 fold
- EC50 (mMC1R): 23000 ± 7000 nM
- EC50 (mMC5R): 5800 ± 600 nM
- mMC5R Fold Diff. (mMC5R): 1094
- mMC5R fold less potent than peptide 1 (mMC5R): approximately 1000 fold
- EC50 (mMC4R): 4300 ± 800 nM
- mMC4R Fold Diff. (mMC4R): 310
- EC50 (mMC3R): > 100000 nM

SMILES: CC(=O)N[C@@H](Cc1cccs1)C(=O)N[C@H](Cc1ccccc1)C(=O)N[C@@H](CCCNC(=N)N)C(=O)N[C@@H](Cc1csc2ccccc12)C(N)=O [Peptide 27, Ac-2Thi-DPhe-Arg-3Bal-NH2] (Ac-[2Thi][dF]R[Bta]-NH2)
- mMC1R Fold Diff (mMC1R): 45
- EC50 (mMC1R): 6400 ± 1600 nM
- EC50 (mMC5R): 970 ± 290 nM
- mMC5R Fold Diff. (mMC5R): 183
- EC50 (mMC4R): 1300 ± 300 nM
- mMC4R Fold Diff. (mMC4R): 91
- EC50 (mMC3R): > 100000 nM

SMILES: CC(=O)N[C@@H](Cc1cccs1)C(=O)N[C@H](Cc1ccccc1)C(=O)N[C@@H](CCCNC(=N)N)C(=O)N[C@@H](Cc1ccc2ccccc2c1)C(N)=O [Peptide 28, Ac-2Thi-DPhe-Arg-Nal(2’)-NH2] (Ac-[2Thi][dF]R[2Nal]-NH2)
- mMC1R Fold Diff (mMC1R): 19
- EC50 (mMC1R): 2600 ± 1300 nM
- EC50 (mMC5R): 76 ± 18 nM
- mMC5R Fold Diff. (mMC5R): 14
- mMC5R fold less potent than peptide 1 (mMC5R): 14 fold
- fold more potent at the mMC5R compared to the mMC1R (mMC5R; selectivity, agonist EC50): 35 fold
- fold more potent at the mMC5R compared to the mMC3R (mMC5R; selectivity, agonist EC50): 163 fold
- fold more potent at the mMC5R compared to the mMC4R (mMC5R; selectivity, agonist EC50): 6 fold
- EC50 (mMC4R): 450 ± 190 nM
- mMC4R Fold Diff. (mMC4R): 33
- EC50 (mMC3R): 12000 ± 6000 nM
- mMC3R Fold Diff (mMC3R): 22
